Data from US20250340532A1, “HETEROCYCLIC COMPOUND CCR4 INHIBITOR AND USER THEREOF” (Xizang Haisco Pharmaceutical Co., Ltd., priority 2022, published 2025).

How the values were obtained:
CCR4 = molecular target: T1, CCR4 (Homo sapiens, UniProt P51679); assay: Calcium flow detected by FLIPR; type: cell-based; conditions: CCR4/HEK293 cells, agonist CCL17, Fluo-4 calcium signal
T1 construct: expressed in transfected cells; host or cells: HEK293
T1 sequence (P51679 1-360): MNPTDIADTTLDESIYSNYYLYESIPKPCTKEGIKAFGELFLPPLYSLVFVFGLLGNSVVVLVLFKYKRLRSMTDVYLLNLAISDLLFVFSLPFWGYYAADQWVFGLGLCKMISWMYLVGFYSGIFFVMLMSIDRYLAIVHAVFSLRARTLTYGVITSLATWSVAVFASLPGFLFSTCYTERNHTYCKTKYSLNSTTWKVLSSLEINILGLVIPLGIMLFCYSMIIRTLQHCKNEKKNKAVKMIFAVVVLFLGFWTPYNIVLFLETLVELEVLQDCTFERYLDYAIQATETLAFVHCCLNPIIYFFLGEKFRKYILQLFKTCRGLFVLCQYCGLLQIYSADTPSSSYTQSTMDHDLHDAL
Procedure: CCR4/HEK293 cells were added to a 384-well cell culture plate (Greiner #781946) at a rate of 20 μL/well (20,000 cells/well) and incubated overnight in a 37° C., 5% CO2 incubator (Incubator, Thermo). On the second day, the 384-well cell culture plate was taken out of the incubator and the culture medium was removed; Then, 20 μL of detection buffer and 20 μL of 2X Fluo-4 Direct™ (Invitrogen, Cat #F10471) were added. Then, compounds were added at 10 μL/well (compounds were subjected to 4-fold serial dilution, and the highest detection concentration was 10 μM), and the cells were incubated in a 37° C., 5% CO2 incubator for 50 min, and then incubated at room temperature for 10 min. The 384-well culture plate was placed in FLIPR ([…]), 10 μL of 6X agonist CCL17 was added by using an automatic loader, and the fluorescence signal was read immediately. The mean and standard error (Mean±SEM) were statistically analyzed using Graphpad Prism software, and the IC50 value was calculated.
The experimental results are shown in Table 3, where A represents IC50<100 nm; B represents 100 nM≤IC50<500 nM, and C represents 500 nM≤IC50.

[1] = Pharmacokinetic test in monkeys; type: in vivo, cynomolgus monkeys; conditions: for AUC(0-t) / clearance / Vd: male, cynomolgus monkey, plasma; for Vd: read-out: Vdss
Procedure: Experimental animals: Male cynomolgus monkeys, 3-5 kg, 3-6 years old, 4 monkeys/compound. purchased from Suzhou Xishan Biotechnology Inc.
Experimental method: On the day of the experiment, 8 monkeys were randomly grouped according to their body weights. The animals were fasted with water available for 14 to 18 h one day before the administration, and were fed 4 h after the administration.
Before and after the administration, 1.0 mL of blood samples were drawn from the limb veins and placed in an EDTAK2 centrifuge tube. Centrifugation was carried out at 5000 rpm at 4° C. for 10 min, and the plasma was collected. The blood collection time points for the intravenous group and intragastric administration group were: 0 min, 5 min, 15 min, 30 min, 1 h, 2 h, 4 h, 6 h, 8 h, 10 h, 12 h, 24 h, and 48 h. Before analysis and detection, all samples were stored at −80° C., and a quantitative analysis of samples was performed using LC-MS/MS.

[2] = Pharmacokinetic test in rats; type: in vivo, SD rats; conditions: for AUC / clearance / Vd: male, SD, rat, plasma; for Vd: read-out: Vdss
Procedure: 1.1 Experimental animals: male SD rats, about 220 g, 6-8 weeks old, 6 rats/compound. Purchased from Chengdu Ddossy Experimental Animals Co., Ltd.
1.2 Experimental design: on the day of the experiment, 36 SD rats were randomly grouped according to their body weights. The animals were fasted with water available for 12 to 14 h one day before the administration and were fed 4 h after the administration.
(§1) Before and after the administration, 0.15 ml of blood was taken from the orbit of the animals under isoflurane anesthesia and placed in an EDTAK2 centrifuge tube. The blood was centrifuged at 5000 rpm and 4° C. for 10 min to collect plasma. The blood collection time points for the intravenous administration group and intragastric administration group were: 0, 5 min, 15 min, 30 min, 1 h, 2 h, 4 h, 6 h, 8 h and 24 h. Before analysis and detection, all samples were stored at −80° C., and a quantitative analysis of samples was performed using LC-MS/MS.

[3] = Pharmacokinetic test in mice; type: in vivo, C57 mice; conditions: for AUC(0-t) / clearance / Vd: male, C57, mouse, plasma; for Vd: read-out: Vdss
Procedure: 1.1 Experimental animals: Male C57 mice, 20-25 g, 6 mice/compound. Purchased from Chengdu Ddossy Experimental Animals Co., Ltd.
1.2 Experimental design: On the day of the experiment, 24 C57 mice were randomly grouped according to their body weight. The animals were fasted with water available for 12 to 14 h one day before the administration and were fed 4 h after the administration.
as §1, with “0.06 mL” for “0.15 ml”, “intravenous” for “intravenous administration”, “0 min,” for “0,”, “7” for “6 h, 8”

Cc1nc(N2CC(C3CN(C4CC(C)(C(=O)O)C4)CCO3)C2)nc(NC(C)c2ccc(Cl)cc2Cl)c1Cl (single isomer, unassigned) [Compound 9 isomer 3]
IC50 (CCR4): < 100 nM | F ([1]; i.g. 5 mg/kg): 72.8 ± 57% | AUC(0-t) ([1]; iv, i.v. 1 mg/kg): 6930 ± 1440 ng·h/mL | clearance ([1]; iv, i.v. 1 mg/kg): 2.44 ± 0.51 mL/min/kg | Vd ([1]; iv, i.v. 1 mg/kg): 0.995 ± 0.088 L/kg | AUC(0-t) ([1]; po, i.g. 5 mg/kg): 25200 ± 19900 ng·h/mL | F ([2]; i.g. 10 mg/kg): 98.7 ± 19% | AUC ([2]; iv, i.v. 2.5 mg/kg): 6280 ± 402 ng·h/mL | clearance ([2]; iv, i.v. 2.5 mg/kg): 6.61 ± 0.42 mL/min/kg | Vd ([2]; iv, i.v. 2.5 mg/kg): 1.49 ± 0.13 L/kg | AUC ([2]; po, i.g. 10 mg/kg): 24800 ± 4810 ng·h/mL

Cc1nc(N2CC(F)(C3CN(C4CC(C)(C(=O)O)C4)CCO3)C2)nc(N[C@H](C)c2ccc(Cl)cc2Cl)c1Cl (single isomer, unassigned) [Compound 64 isomer 3]
IC50 (CCR4): < 100 nM | F ([2]; i.g. 10 mg/kg): 108 ± 21% | AUC ([2]; iv, i.v. 2.5 mg/kg): 6020 ± 1390 ng·h/mL | clearance ([2]; iv, i.v. 2.5 mg/kg): 6.85 ± 1.2 mL/min/kg | Vd ([2]; iv, i.v. 2.5 mg/kg): 1.38 ± 0.25 L/kg | AUC ([2]; po, i.g. 10 mg/kg): 26100 ± 5150 ng·h/mL | F ([3]; i.g. 10 mg/kg): 118 ± 4.5% | AUC(0-t) ([3]; iv, i.v. 2.5 mg/kg): 4490 ± 361 ng·h/mL | clearance ([3]; iv, i.v. 2.5 mg/kg): 9.26 ± 0.73 mL/min/kg | Vd ([3]; iv, i.v. 2.5 mg/kg): 1.94 ± 0.053 L/kg | AUC(0-t) ([3]; po, i.g. 10 mg/kg): 21200 ± 815 ng·h/mL

Cc1nc(N2CCC(C3CN(CCC(=O)O)CCO3)CC2)nc(NC(C)c2ccc(Cl)cc2Cl)c1Cl (single isomer, unassigned) [Compound 76 isomer 2]
IC50 (CCR4): < 100 nM | F ([3]; i.g. 10 mg/kg): 123 ± 14% | AUC(0-t) ([3]; iv, i.v. 2.5 mg/kg): 1790 ± 125 ng·h/mL | clearance ([3]; iv, i.v. 2.5 mg/kg): 23.1 ± 1.7 mL/min/kg | Vd ([3]; iv, i.v. 2.5 mg/kg): 1.44 ± 0.12 L/kg | AUC(0-t) ([3]; po, i.g. 10 mg/kg): 8840 ± 1010 ng·h/mL

Cc1nc(N2CC3C(C2)C3C2CN(C3CC(C)(C(=O)O)C3)CCO2)nc(NC(C)c2ccc(Cl)cc2Cl)c1Cl (single isomer, unassigned) [Compound 78 isomer 3]
IC50 (CCR4): < 100 nM | F ([2]; i.g. 10 mg/kg): >98% | AUC ([2]; iv, i.v. 2.5 mg/kg): 4560 ± 638 ng·h/mL | clearance ([2]; iv, i.v. 2.5 mg/kg): 9.22 ± 1.2 mL/min/kg | Vd ([2]; iv, i.v. 2.5 mg/kg): 2.07 ± 0.28 L/kg | AUC ([2]; po, i.g. 10 mg/kg): 28400 ± 7070 ng·h/mL

C[C@@H](Nc1cc(N2CC(C3CN(C4CC(C)(C(=O)O)C4)CCO3)C2)ccc1Cl)c1ccc(Cl)cc1Cl (single isomer, unassigned) [Compound 83 isomer 1]
IC50 (CCR4): < 100 nM | F ([1]; i.g. 5 mg/kg): 76.8 ± 27% | AUC(0-t) ([1]; iv, i.v. 1 mg/kg): 15800 ± 1740 ng·h/mL | clearance ([1]; iv, i.v. 1 mg/kg): 1.02 ± 0.14 mL/min/kg | Vd ([1]; iv, i.v. 1 mg/kg): 0.754 ± 0.15 L/kg | AUC(0-t) ([1]; po, i.g. 5 mg/kg): 60700 ± 21600 ng·h/mL | F ([2]; i.g. 10 mg/kg): >98% | AUC ([2]; iv, i.v. 2.5 mg/kg): 7320 ± 1280 ng·h/mL | clearance ([2]; iv, i.v. 2.5 mg/kg): 5.53 ± 1 mL/min/kg | Vd ([2]; iv, i.v. 2.5 mg/kg): 2.25 ± 0.27 L/kg | AUC ([2]; po, i.g. 10 mg/kg): 37000 ± 2820 ng·h/mL | F ([3]; i.g. 10 mg/kg): 91.6 ± 12% | AUC(0-t) ([3]; iv, i.v. 2.5 mg/kg): 7250 ± 726 ng·h/mL | clearance ([3]; iv, i.v. 2.5 mg/kg): 5.69 ± 0.6 mL/min/kg | Vd ([3]; iv, i.v. 2.5 mg/kg): 1.77 ± 0.069 L/kg | AUC(0-t) ([3]; po, i.g. 10 mg/kg): 26600 ± 3520 ng·h/mL

C#Cc1ccc(C(C)Nc2cc(N3CC([C@H]4CCCN([C@H]5C[C@](C)(C(=O)O)C5)C4)C3)nc3ccnn23)c(Cl)c1 (some centres unmarked) [Compound 22]
IC50 (CCR4): < 100 nM

C#Cc1ccc(C(C)Nc2cc(N3CC([C@H]4CCCN([C@H]5C[C@](C)(C(=O)O)C5)C4)C3)ncn2)c(Cl)c1 (some centres unmarked) [Compound 23]
IC50 (CCR4): < 100 nM

C[C@@H](Nc1cc(N2CC([C@H]3CCCN(CCO)C3)C2)nc2ccnn12)c1ccc(Cl)cc1Cl [Compound 24]
IC50 (CCR4): < 100 nM

C[C@@H](Nc1cc(N2CC([C@H]3CCCN([C@H]4C[C@](C)(C(=O)O)C4)C3)C2)n2nccc2n1)c1ccc(Cl)cc1Cl [Compound 25]
IC50 (CCR4): < 100 nM

Cc1nc(N[C@H](C)c2ccc(Cl)cc2Cl)cc(N2CC([C@H]3CCCN([C@H]4C[C@](C)(C(=O)O)C4)C3)C2)n1 [Compound 26]
IC50 (CCR4): < 100 nM

C[C@@H](Nc1cc(N2CC([C@H]3CCCN(CCO)C3)C2)ncn1)c1ccc(Cl)cc1Cl [Compound 27]
IC50 (CCR4): < 100 nM

Cc1nc(N2CC([C@@H]3CN(CCO)CCO3)C2)nc(N[C@H](C)c2ccc(Cl)cc2Cl)c1Cl [Compound 31]
IC50 (CCR4): < 100 nM

C[C@@H](Nc1nc(N2CC([C@H]3CCCN([C@H]4C[C@](C)(C(=O)O)C4)C3)C2)c2sccc2n1)c1ccc(Cl)cc1Cl [Compound 33]
IC50 (CCR4): < 100 nM

C[C@@H](Nc1nc2c(c(N3CC([C@H]4CCCN([C@H]5C[C@](C)(C(=O)O)C5)C4)C3)n1)CCC2)c1ccc(Cl)cc1Cl [Compound 34]
IC50 (CCR4): 100 to 500 nM
